Measurements as given in PubChem BioAssay AID1963447 (Molecular Pharmacology Branch, DTP, NCI, 2024).
Values joined by “and” are separate entries in the source; they are usually repeats but may differ in a detail not shown here. Equal entries are not always repeated.

Tested on: 885512-296-R-J2-PDC complex spheroid growth, % test/control
Test: Anticancer human tumor 885512-296-R-J2-PDC patient-derived breast carcinoma cell line growth inhibition [Asc]
Details: for viability, T/C: stronger effect = lower value
Protocol: Multicellular complex tumor spheroid response to apoptosis pathway targeting inhibitors Alrizomadlin, Pelcitoclax, and Dasminapant in combination with a variety of drugs and investigational agents in selected tumor cell lines
The MDM2 inhibitor alrizomadlin, the Bcl-2/Bcl-xL inhibitor pelcitoclax, and the IAPs inhibitor dasminapant were evaluated both individually and in combination with standard of care and investigational anticancer small molecules within a complex spheroid model of solid tumors. . Complex spheroids include a stromal component modeled by human endothelial cells (HUVEC) and fibroblasts modeled by human mesenchymal stem cells (MSCs). The concentration ranges selected for each drug and investigational agent were based upon clinically achievable concentrations if the clinical Cmax of the agent was known.
Compounds. The drugs and investigational agents: alrizomadlin (APG-115; NSC831270), pelcitoclax (APG-1252; NSC835773), dasminapant (APG-1387;NSC834197), TAK-243 (NSC785004), copanlisib (NSC809693), olaparib (NSC753686), talazoparib (NSC767125), cobimetinib (NSC 768068), eltanexor (KPT-8602, NSC 794443), abemaciclib (NSC 768073), sotorasib (NSC818433), adagrasib (NSC 831453), MRTX-1133 (NSC 836407), Iadademestat (ORY1001, NSC 806812), and RMC-4630 (NSC839698), were obtained from the NCI Developmental Therapeutics Program Chemical Repository. The FDA-approved anticancer drug set is available from the Developmental Therapeutics Program at https://dtp.cancer.gov/organization/dscb/obtaining/available plates.htm. […] The stock solutions were prepared in dimethyl sulfoxide (DMSO, Sigma-Aldrich, St. Louis, MO, cat. D2650) at 800-fold the tested concentration and stored at -70 degrees C prior to their use. All drugs and investigational agents were tested over a range starting from a high concentration at or near the clinical Cmax and decreasing in half-log increments. If the clinical Cmax for an agent had not been determined, the highest concentration tested was 10 microM.
The patient-derived cancer (PDC) cell lines include five colon adenocarcinomas: 186277-243-T-J2-PDC, 616215-338-R-J1-PDC, 439559-082-T-J2-PDC, 463943-066-T-J2-PDC, and 519858-162-T-J1-PDC; three pancreatic carcinomas: 323965-272-R-J2-PDC, 521955-158-R6-J3-PDC, and 521955-158-R2-J5-PDC; two uterine sarcomas: 327498-152-R-J2-PDC and 993429-296-R-J1-PDC; two rhabdomyosarcomas: 755483-174-R-J1-PDC and 772245-204-R-J1-PDC; two soft tissue sarcomas: 126254-015-R-J1-PDC and 494315-158-R-J1-PDC; two malignant fibrous histiocytomas: 317291-083-R-J1-PDC and 596521-263-R-J1-PDC; two breast carcinomas: 171881-019-R-J1-PDC and 885512-296-R-J2-PDC; and one ovarian carcinoma: 6556581-035-R-J-PDC were obtained from the NCI PDMR, (https://pdmr.cancer.gov). The established cell lines HSSY-2 synovial sarcoma (RRID:CVCL 8719), SYO-1 synovial sarcoma (RRID:CVCL_7146), MPNST malignant peripheral neural sheath tumor were obtained from the Sloan Kettering Institute. The following established cell lines were purchased from the American Type Culture Collection (ATCC, Manassas, VA), Sor the received from the NCI repository:, PANC-1 pancreatic carcinoma (CRL-1469, RRID:CVCL_0480), OVCAR-5 ovarian carcinoma (RRID:CVCL_1628), OVCAR-8 ovarian carcinoma (RRID:CVCL_1629), , MCF-7 breast carcinoma (CRL-12584, RRID:CVCL_0031), MDA-MB-231 breast carcinoma (CRL-12532, RRID:CVCL_0062), NCI-H1876 small cell lung carcinoma (CRL-5902, RRID:CVCL_1503), NCI-H510A small cell lung carcinoma (HTB-184, RRID:CVCL_1565), NCI-H1417 (CRL-5869, RRID:CVCL_1469), and NCI-H196 small cell lung carcinoma (CRL-5823, RRID:CVCL_1509). Dr. Peter Houghton (Greehey Children's Cancer Research Institute, University of Texas Health Science Center, San Antonio, TX) provided Rh-18 rhabdomyosarcoma (RRID:CVCL_1659). Pooled donor human umbilical vein endothelial cells (HUVEC, Lonza, cat. CC-2519) and human mesenchymal stem cells (hMSC, Lonza, cat. PT-2501) were purchased from Lonza (Walkersville, MD).
Cell Culture. […]

[1] = curve of first compound, second compound 0.1 µM
[2] = curve of first compound, second compound 0.316 µM
[3] = curve of first compound, second compound 1 µM
[4] = curve of first compound, second compound 3.16 µM
[5] = curve of first compound, second compound 10 µM
[6] = second compound 0.1 µM, first compound 0.0316 µM
[7] = second compound 0.1 µM, first compound 0.1 µM
[8] = second compound 0.1 µM, first compound 0.316 µM
[9] = second compound 0.1 µM, first compound 1 µM
[10] = second compound 0.316 µM, first compound 0.0316 µM
[11] = second compound 0.316 µM, first compound 0.1 µM
[12] = second compound 0.316 µM, first compound 0.316 µM
[13] = second compound 0.316 µM, first compound 1 µM
[14] = second compound 1 µM, first compound 0.0316 µM
[15] = second compound 1 µM, first compound 0.1 µM
[16] = second compound 1 µM, first compound 0.316 µM
[17] = second compound 1 µM, first compound 1 µM
[18] = second compound 3.16 µM, first compound 0.0316 µM
[19] = second compound 3.16 µM, first compound 0.1 µM
[20] = second compound 3.16 µM, first compound 0.316 µM
[21] = second compound 3.16 µM, first compound 1 µM
[22] = second compound 10 µM, first compound 0.0316 µM
[23] = second compound 10 µM, first compound 0.1 µM
[24] = second compound 10 µM, first compound 0.316 µM
[25] = second compound 10 µM, first compound 1 µM
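Note: spheroids exposed to compounds for seven days.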
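Throughout, for viability, T/C: 100% = DMSO vehicle control wells.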

IC50 [1]	IC50 [2]	IC50 [3]	IC50 [4]	IC50 [5]	SMILES	viability, T/C [6]	viability, T/C [7]	viability, T/C [8]	viability, T/C [9]	viability, T/C [10]	viability, T/C [11]	viability, T/C [12]	viability, T/C [13]	viability, T/C [14]	viability, T/C [15]	viability, T/C [16]	viability, T/C [17]	viability, T/C [18]	viability, T/C [19]	viability, T/C [20]	other results
4.75 µM	4.35 µM	3.76 µM	3.67 µM	3.29 µM	O=C(c1cc(Cc2n[nH]c(=O)c3ccccc23)ccc1F)N1CCN(C(=O)C2CC2)CC1 + Cc1c(S(C)(=O)=O)c(-c2cc(F)cc(N3CCN(c4ccc(NS(=O)(=O)c5ccc(NC(CCN6CCC(C(=O)OCCCP(=O)(O)O)CC6)CSc6ccccc6)c(S(=O)(=O)C(F)(F)F)c5)cc4)CC3)c2)c(-c2ccc(Cl)cc2)n1C(C)C	90.8%	105%	95.5%	91%	96.4%	96.7%	104%	96.6%	83.3%	98.8%	104%	92%	101%	106%	99%	viability, T/C (second compound 0.1 µM, first compound 3.16 µM): 67.9%; viability, T/C (second compound 0.1 µM, first compound 10 µM): 17.4%; viability, T/C (second compound 0.316 µM, first compound 3.16 µM): 64.2%; viability, T/C (second compound 0.316 µM, first compound 10 µM): 13.1%; viability, T/C (second compound 1 µM, first compound 3.16 µM): 56.8%; viability, T/C (second compound 1 µM, first compound 10 µM): 11.7%; viability, T/C [21]: 88.1%; viability, T/C (second compound 3.16 µM, first compound 3.16 µM): 55.7%; viability, T/C (second compound 3.16 µM, first compound 10 µM): 11.7%; viability, T/C [22]: 125%; viability, T/C [23]: 113%; viability, T/C [24]: 97.5%; viability, T/C [25]: 90.3%; viability, T/C (second compound 10 µM, first compound 3.16 µM): 47.5%; viability, T/C (second compound 10 µM, first compound 10 µM): 9.81%
–	–	–	–	–	C#Cc1c(F)ccc2cc(O)cc(-c3ncc4c(N5CC6CCC(C5)N6)nc(OCC56CCCN5CC(F)C6)nc4c3F)c12 (configuration not stated)	–	–	–	–	–	–	–	–	–	–	–	–	–	–	–	viability, T/C (compound 0.0316 µM): 93.6% and 96.8% and 95.3%; viability, T/C (compound 0.1 µM): 103% (2×) and 91.5%; viability, T/C (compound 0.316 µM): 89.2% and 72.3% and 99.9%; viability, T/C (compound 1 µM): 99.7% and 72.6% and 93.5%; viability, T/C (compound 3.16 µM): 101% and 93.8% and 87.5%; viability, T/C (compound 10 µM): 97.2% and 80.2% and 71.9%; IC50 (curve of compound): > 10 µM
0.263 µM	0.255 µM	0.238 µM	0.224 µM	0.247 µM	COc1c(OCCCN2CCOCC2)ccc2c3n(c(=NC(=O)c4cnc(N)nc4)nc12)CCN3 + Cc1c(S(C)(=O)=O)c(-c2cc(F)cc(N3CCN(c4ccc(NS(=O)(=O)c5ccc(NC(CCN6CCC(C(=O)OCCCP(=O)(O)O)CC6)CSc6ccccc6)c(S(=O)(=O)C(F)(F)F)c5)cc4)CC3)c2)c(-c2ccc(Cl)cc2)n1C(C)C	95.9%	69.3%	47%	4.94%	79.3%	79%	43.2%	5.3%	84%	70.2%	43.9%	5.16%	77.5%	73.5%	40%	viability, T/C (second compound 0.1 µM, first compound 0.00316 µM): 95.2%; viability, T/C (second compound 0.1 µM, first compound 0.01 µM): 87.2%; viability, T/C (second compound 0.316 µM, first compound 0.00316 µM): 91.2%; viability, T/C (second compound 0.316 µM, first compound 0.01 µM): 93.5%; viability, T/C (second compound 1 µM, first compound 0.00316 µM): 98.8%; viability, T/C (second compound 1 µM, first compound 0.01 µM): 101%; viability, T/C (second compound 3.16 µM, first compound 0.00316 µM): 92.4%; viability, T/C (second compound 3.16 µM, first compound 0.01 µM): 87.5%; viability, T/C [21]: 5.34%; viability, T/C (second compound 10 µM, first compound 0.00316 µM): 117%; viability, T/C (second compound 10 µM, first compound 0.01 µM): 112%; viability, T/C [22]: 96.2%; viability, T/C [23]: 81%; viability, T/C [24]: 40.7%; viability, T/C [25]: 4.02%
